From patent US4824862A, “3-phenyl-2-styrylpyrrolidines, preparation and use thereof” (BASF Aktiengesellschaft, priority 1987, dated 1989) come the findings set out here.

Holding throughout (format): biochemical
Assay [1] deals with Dopamine uptake (3H-dopamine, corpus striatum synaptosomes). Kind of assay: Inhibition of dopamine uptake in rat brain synaptosomes (corpus striatum). As to conditions: for IC50: rat corpus striatum synaptosomes, 3H-dopamine, 37° C., read-out: Inhibition of neurotransmitter uptake in synaptosomes, Dopamine IC 50. An excerpt: (§1) The mode of action of a group of therapeutically frequently used antidepressants (for example tricyclic antidepressants) include the inhibition of the neuronal uptake of transmitter substances (norepinephrine, dopamine, serotonin). This property is utilized in biological test models to characterize potential antidepressants.
(§2) The following method was used: Inhibition of neurotransmitter uptake in rat brain synaptosomes
(§3) Hippocampus, corpus striatum and cortex of rat brains were dissected out and homogenized in 0.32M sucrose solution. Differential centrifugation gave synaptosomes which were suspended in buffer solution. Synaptosomes are capable of actively taking up added neurotransmitter substances (for example norepinephrine, dopamine, serotonin) from the surrounding medium. With the aid of uptake inhibitors it is possible to counteract this process to a degree which depends on the concentration. The synaptosomes were mixed with the test substances in various concentrations and then incubated at 37° C. with ^3 H-norepinephrine (hippocampus), ^3 H-dopamine (corpus striatum) and ^3 H-serotonin (cortex). The substrate concentration was about […]. The uptake was determined by dilution with ice-cold buffer solution; thereafter the synaptosomes were separated off by centrifugation, and the ^3 H activity was measured in the sediment. A blank value was determined by incubating at 0° C.
(§4) The median inhibitory concentration (IC 50) was calculated from the inhibitor values found for the various inhibitor concentrations by comparison with the blank test by linear regression following logit-log conversion.

In assay [2] the test system is Serotonin uptake (3H-serotonin, cortex synaptosomes). The assay is described as follows: Inhibition of serotonin uptake in rat brain synaptosomes (cortex). Conditions: 37° C., read-out: Inhibition of neurotransmitter uptake in synaptosomes, Serotonin IC 50.
From the text: as §1, §2, §3, §4

Assay [3] concerns Norepinephrine uptake (3H-norepinephrine, hippocampus synaptosomes). Kind of assay: Inhibition of norepinephrine uptake in rat brain synaptosomes (hippocampus). Conditions: for IC50: rat hippocampus synaptosomes, 3H-norepinephrine, 37° C., read-out: Inhibition of neurotransmitter uptake in synaptosomes, Norepinephrine IC 50.
From the text: as §1, §2, §3, §4

For `CCN1CC[C@@H](c2ccccc2)[C@H]1/C=C/c1ccccc1` (relative stereo) [Example 2 cis, cis-3-phenyl-2-trans-styryl-N-ethylpyrrolidine], the IC50 in assay [1] is 180 nM; in assay [2], greater than 1000 nM; in assay [3], 43 nM.
For `CCCN1CC[C@@H](c2ccccc2)[C@@H]1/C=C/c1ccccc1` (relative stereo) [Example 3 trans, trans-3-phenyl-2-trans-styryl-N-n-propylpyrrolidine] the same measures were 400 nM, greater than 1000 nM and 160 nM.
On to `CCCN1CC[C@@H](c2ccccc2)[C@H]1/C=C/c1ccccc1` (relative stereo) [Example 3 cis, cis-3-phenyl-2-trans-styryl-N-n-propylpyrrolidine], for which the IC50 in assay [2] is greater than 1000 nM.
Take `CCN1CC[C@@H](c2ccccc2)[C@@H]1/C=C/c1ccccc1` (relative stereo) [Example 2 trans, trans-3-phenyl-2-trans-styryl-N-ethylpyrrolidine]: the results for the IC50 in assay [1], in assay [2] and in assay [3] were 23 nM, greater than 1000 nM and 5.5 nM, respectively. The “potency of inhibition of noradrenaline uptake compared with imipramine, in words” value in assay [3] was “appreciably exceeded by the compounds according to the invention”.
For `CN(C)CCCN1c2ccccc2CCc2ccccc21` [Imipramine, reference compound], the “inhibition of dopamine uptake, in words” value in assay [1] (qualitative statement) is listed as “not possessed by imipramine”. Besides, the IC50 is greater than 1000 nM in assay [1], 130 nM in assay [2] and 14 nM in assay [3].
Turning to `CN1CC[C@@H](c2ccccc2)[C@@H]1/C=C/c1ccccc1` (relative stereo) [Example 1 trans, trans-3-phenyl-2-trans-styryl-N-methylpyrrolidine], the results for the IC50 in assay [1], in assay [2] and in assay [3] were 92 nM, greater than 1000 nM and 7.3 nM, respectively. Further, the “potency of inhibition of noradrenaline uptake compared with imipramine, in words” value in assay [3] was “appreciably exceeded by the compounds according to the invention”.
Consider `CN1CC[C@@H](c2ccccc2)[C@H]1/C=C/c1ccccc1` (relative stereo) [Example 1 cis, cis-3-phenyl-2-trans-styryl-N-methylpyrrolidine], for which the IC50 in assay [1] was 120 nM; in assay [2], greater than 1000 nM; in assay [3], 29 nM.
